Entries after “also recorded” stand apart in the source; their conditions may differ. Like-named read-outs stand apart in the source and are kept apart here.
Columns and labels:
Format in all cases: cell-based
[1] = system: NRF2 activity in H1299-NQO1-YFP cells; assay: NRF2 activity reporter IC50 in H1299-NQO1-YFP cells vs NRF2 pathway activators (IncuCyte, YFP/mCherry); details: for suppression of NRF2 activity (in words): IC50 experiments at the doses tested
Description: Readings were taken every 2 hours for at least 24 hours. […] Readings were also taken every 2 hours for 96 hours in and IncuCyte S3.
(§1) YFP total intensity (correlating to NRF2 activity) was normalized to NLS-mCherry (cell number) total intensity to give a ratio (YFP/mCherry). Ratios at one time point at least 24 hours post compounds were added were used. These numbers were then plotted in Graphpad Prism to calculate IC50s. […] From three biological replicates, percent confluence was used for proliferation assays to calculate IC50s, calculations performed using Graphpad Prism.

NRF2 protein [2] = assay: Western blot analysis of NRF2 protein abundance and downstream targets in cell lines; details: for NRF2 protein abundance: 24-48 hours, PYR 10 μM, analogs 1 μM (104 in HEK293T 10 μM), MTX and PEM 0.1 μM, CG 10 μM; for NRF2 protein on co-treatment with Bortezomib: BORT 0.04 μM co-treatment, HEK293T, H1299
Description: (§2) Western Blots: KYSE70, HEK293T cells were plated and 24 hours later treated with compounds (see figure legends for details). Either at 24 or 48 hours later, cells were scrapped in RIPA buffer (0.2% deoxycholate, 0.1% SDS, 1% NP40, 150 mM NaCl, 50 mM Tris pH 7.4, 2 mM EDTA) supplemented with protease and phosphatase inhibitors, cleared at 14000×g for 15 minutes at 4° C., and supernatants were quantified by BCA assay (Pierce, 23225). Protein samples (20 μg) were prepared with 1×LDS buffer with 100 mM DTT, ran on NuPAGE 4-12% Bis-tris gels, and transferred onto a […] nitrocellulose membrane (Thermo, 88018). All blots were blocked in 5% milk in TBST for 30 minutes. After incubation of the primary antibody overnight at 4° C. and washed three times with 1×TBST, blots were incubated with LI-COR secondary antibodies for 1-2 hours, washed in 1×TBST thrice, and then imaged via a LI-COR Odyssey instrument (Li-COR, Lincoln, Nebr.).

[3] = system: NRF2 mRNA and NRF2 target gene mRNA; assay: RT-qPCR of NRF2 mRNA and NRF2 downstream targets in KYSE70 cells; details: 24 or 48 hours, PYR 10 μM, analogs 1 μM, MTX and PEM 0.1 μM
Description: (§3) qRT-PCR: Total RNA was extracted using PureLink RNA kit following the manufacturers protocol. Primers for qPCR were designed using the National Center for Biotechnology Information's (NCBI) Primer-BLAST platform. For primer sequences, see Table 2. RNA was quantified using a Nanodrop One (Thermo, Waltham, Mass.), and the reverse transcription reaction was performed using 2 μg of RNA with the iSCRIPT Clear kit with DNAse (Biorad, 170-8891). For the qRT-PCR, PowerUP SYBR Green (Thermo, A25741) was used, and data were analyzed on an AB QuantStudio 6 Flex Real Time PCR machine (Applied Biosystems, Foster City, Calif.). ΔCT values were normalized to housekeeping gene RPL13a and then normalized to DMSO for final ΔΔCT value.

[4] = system: mutant KEAP1 activation of NRF2 pathway in H1299-NQO1-YFP cells; assay: H1299-NQO1-YFP reporter cells transfected with mutant KEAP1; details: 10 μM PYR, mutant KEAP1 overexpressed
Description: Data is of 3 independent experiments, error bars are SD.
H1299-NQO1-YFP cells were transfected with WT, R320Q, R470C, or V115F FLAG-KEAP1 constructs using Lipofectamine 2000. […] Calculations are detailed below. This was performed in biological triplicate and error bars are SD.

KYSE70 cells = assay: Proliferation IC50 (percent confluence, IncuCyte) in KYSE70 cells; details: Homo sapiens, KYSE-70, 96 h, read-out: proliferation IC50
Description: as §1, with “IncuCyte and IC50 calculations: […] […] Readings were taken every 2 hours for at least 24 hours. […] Readings were also taken every 2 hours for 96 hours in and IncuCyte S3. YFP total” for “YFP total”

H1299 cells = assay: Proliferation IC50 (percent confluence, IncuCyte) in H1299 cells; details: Homo sapiens, NCI-H1299, 96 h, read-out: proliferation IC50
Description: as §1, with “IncuCyte and IC50 calculations: […] […] Readings were taken every 2 hours for at least 24 hours. […] Readings were also taken every 2 hours for 96 hours in and IncuCyte S3. YFP total” for “YFP total”

DHFR protein = molecular target: T1, DHFR protein (Homo sapiens, UniProt P00374); assay: Western blot for DHFR protein stabilization; details: western blot at the doses used
T1 construct: endogenous in cells; host or cells: KYSE70, HEK293T, H1299, A549, OE21, PC-9
T1 sequence (P00374 1-187): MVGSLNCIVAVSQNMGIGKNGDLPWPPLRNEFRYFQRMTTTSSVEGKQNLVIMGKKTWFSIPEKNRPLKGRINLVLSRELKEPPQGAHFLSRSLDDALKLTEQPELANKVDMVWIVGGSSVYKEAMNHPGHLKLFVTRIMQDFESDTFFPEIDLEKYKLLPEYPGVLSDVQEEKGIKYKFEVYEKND
Description: as §2

NRF2 protein [5] = assay: Western blot analysis of NRF2 protein abundance and downstream targets in cell lines
AXIN2 and CK1γ1 mRNA = assay: qRT-PCR of AXIN2 and CK1γ1 mRNA (not NRF2 target genes) in KYSE70 cells; details: KYSE70, 48 hours; 1 μM 115, 0.1 μM MTX, 0.1 μM PEM
Source text: Single experiment shown. AXIN2 and CK1γ1 were done in same experiment, but separated for discussion. Error bars are SD and * represents p-value <0.05.
as §3

[6] = Table 3, activator CDDO 100 nM, H1299-NQO1-YFP cells, read-out: CDDO 100 nM IC50 μM ± SEM
[7] = Table 3, activator SULF 2 μM, H1299-NQO1-YFP cells, read-out: SULF 2 μM IC50 μM ± SEM
[8] = Table 3, average over activators, H1299-NQO1-YFP cells, read-out: Avg IC50
[9] = read-out: PRL295 5 μM IC50 μM ± SEM, Table 3, activator PRL295 5 μM, H1299-NQO1-YFP cells
[10] = Table 1, activator CDDO 0.1 μM, H1299-NQO1-YFP cells, read-out: CDDO 0.1 μM IC50 μM ± SEM
[11] = Table 1, activator SULF 2 μM, H1299-NQO1-YFP cells, read-out: SULF 2 μM IC50 μM ± SEM
[12] = Table 1 and text, average over activators CDDO, PRL295, SULF, H1299-NQO1-YFP cells, read-out: Avg IC50
[13] = Table 6 NRF2 inhibitors, read-out: Avg IC50
[14] = read-out: PRL295 5 μM IC50 AM ± SEM, Table 1, activator PRL295 5 μM, H1299-NQO1-YFP cells

Compound	IC50 [1, 6] [µM]	IC50 [1, 7] [µM]	IC50 [1, 8] [µM]	IC50 [1, 9] [µM]	NRF2 protein abundance (NRF2 protein [2]; western blot)	NRF2 mRNA and NRF2 target gene mRNA [3]	IC50 [1, 12] [µM]	IC50 [1, 13] [µM]	IC50 [1, 14] [µM]	also measured
CC1(C)N=C(N)N=C(N)N1c1ccc(Cl)cc1 [CG, reference compound]	1.82 ± 0.085	1.5 ± 0.0466	1.7	1.57 ± 0.008	decreased	decreased				
CCc1nc(N)nc(N)c1-c1cc(Cl)cc(Cl)c1 [WCDD114, 5-(3,5-dichlorophenyl)-6-ethylpyrimidine-2,4-diamine]					decrease NRF2 protein abundance		0.1	0.108	0.079 ± 0.002	IC50 [1, 10]: 0.134 ± 0.014 µM; IC50 [1, 11]: 0.111 ± 0.009 µM; IC50 ([1]; unit inferred, read-out: IC50): 0.1 µM
CCc1nc(N)nc(N)c1-c1cccc(Cl)c1 [WCDD104, 5-(3-chlorophenyl)-6-ethylpyrimidine-2,4-diamine]					inhibition of NRF2 protein abundance and downstream target gene expression; also recorded: decrease NRF2 protein abundance		0.1	0.098	0.061 ± 0.003	IC50 [1, 10]: 0.103 ± 0.001 µM; IC50 [1, 11]: 0.129 ± 0.003 µM; IC50 ([1]; unit inferred, read-out: IC50): 0.1 µM; NRF2 protein on co-treatment with Bortezomib (NRF2 protein [2]): demonstrated a proteasomal requirement for activity
CCc1nc(N)nc(N)c1-c1ccc(Cl)cc1 [PYR, 5-(4-chlorophenyl)-6-ethylpyrimidine-2,4-diamine, reference compound]				0.873 ± 0.032	decreases NRF2 protein abundance	abrogated NRF2 mRNA and NRF2 target gene mRNA decrease			0.873 ± 0.032	IC50 ([1]; read-out: Avg IC50 μM, Table 1 and text, average over activators CDDO, PRL295, SULF, H1299-NQO1-YFP cells): 1.2 µM; IC50 ([1]; read-out: Avg IC50 μM, Table 3, average over activators, H1299-NQO1-YFP cells): 1.23 µM; IC50 ([1]; read-out: Avg IC50 μM, Table 6 NRF2 inhibitors): 1.23 µM; IC50 ([1]; read-out: CDDO 0.1 μM IC50 μM ± SEM, Table 1, activator CDDO 0.1 μM, H1299-NQO1-YFP cells): 1.25 ± 0.024 µM; IC50 ([1]; read-out: CDDO 100 nM IC50 μM ± SEM, Table 3, activator CDDO 100 nM, H1299-NQO1-YFP cells): 1.25 ± 0.024 µM; IC50 ([1]; read-out: SULF 2 μM IC50 μM ± SEM, Table 1, activator SULF 2 μM, H1299-NQO1-YFP cells): 1.59 ± 0.0448 µM; IC50 ([1]; read-out: SULF 2 μM IC50 μM ± SEM, Table 3, activator SULF 2 μM, H1299-NQO1-YFP cells): 1.59 ± 0.0448 µM; mutant KEAP1 activation of the NRF2 pathway [4]: repressed mutant KEAP1 activation of the pathway; NRF2 protein on co-treatment with Bortezomib (NRF2 protein [2]): prevented PYR from decreasing NRF2; expression of downstream NRF2 target proteins (NRF2 protein [2]; western blot, PYR treatment): decreased expression of downstream NRF2 target proteins; IC50 (KYSE70 cells): 1.24 µM; IC50 (H1299 cells): 3.83 µM; DHFR protein stabilization (DHFR protein): DHFR protein was stabilized; NRF2 protein levels with MLN induced stabilization (NRF2 protein [5]; H1299, 10 μM PYR or 1 μM 115 with 0.5 μM MLN, 24 hours): Neither PYR nor 115 can decrease NRF2 protein levels
Nc1nc2[nH]cc(CCc3ccc(C(=O)N[C@@H](CCC(=O)O)C(=O)O)cc3)c2c(=O)[nH]1 [PEM, reference compound]	0.334 ± 0.03	0.382 ± 0.0374	0.276	0.112 ± 0.0068	did not	did not				suppression of NRF2 activity (in words) [1]: only partial suppression of NRF2 activity; AXIN2 and CK1γ1 mRNA (AXIN2 and CK1γ1 mRNA): decreased AXIN2 and CK1γ1 mRNA
Nc1nc(=O)c2c([nH]1)NCC(CNc1ccc(C(=O)N[C@@H](CCC(=O)O)C(=O)O)cc1)N2C=O (mixture of isomers) [FA, Folinic Acid]										stabilization of NRF2 by FA alone (NRF2 protein [5]; H1299, 10 ng/ml FA, 24 hr): no stabilization of NRF2
CN(Cc1cnc2nc(N)nc(N)c2n1)c1ccc(C(=O)N[C@@H](CCC(=O)O)C(=O)O)cc1 [MTX, Methotrexate, reference compound]	0.0008	0.0358 ± 0.0031	0.0202	0.024 ± 0.0024	decreased	decreased				IC50 (KYSE70 cells): 0.0124 µM; AXIN2 and CK1γ1 mRNA (AXIN2 and CK1γ1 mRNA): decreased AXIN2 and CK1γ1 mRNA
CCc1nc(N)ncc1-c1ccc(Cl)cc1 [WCDD101, 5-(4-chlorophenyl)-4-ethylpyrimidin-2-amine]							> 20	> 20		suppression of NRF2 activity (in words) [1]: did not have any effect on NRF2 activity; DHFR protein stabilization (DHFR protein): DHFR was not stabilized

From patent US20220289686A1, “COMPOSITIONS OF NRF2 INHIBITING AGENTS AND METHODS OF USE THEREOF” (Washington University, priority 2021, published 2022)
